Reference: patent US11963960B2 (Flash Therapeutics, LLC, priority 2020, dated 2024)

Molecular target: N-terminally GST-tagged HCK (75-526) (Homo sapiens (Human), UniProt P08631)
Test: HCK Kinase Assay (ProFluor Src-Family Kinase Assay)
Assay type: biochemical
Conditions: HCK inhibitory activity, 50 μM ATP; read-out: HCK Activity
In short: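 ProFluor Src-family format: after the kinase reaction, protease solution was added for 60 min at room temperature (22-25° C), then stabilizer.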

Chain of N-terminally GST-tagged HCK (75-526) (P08631 75-526): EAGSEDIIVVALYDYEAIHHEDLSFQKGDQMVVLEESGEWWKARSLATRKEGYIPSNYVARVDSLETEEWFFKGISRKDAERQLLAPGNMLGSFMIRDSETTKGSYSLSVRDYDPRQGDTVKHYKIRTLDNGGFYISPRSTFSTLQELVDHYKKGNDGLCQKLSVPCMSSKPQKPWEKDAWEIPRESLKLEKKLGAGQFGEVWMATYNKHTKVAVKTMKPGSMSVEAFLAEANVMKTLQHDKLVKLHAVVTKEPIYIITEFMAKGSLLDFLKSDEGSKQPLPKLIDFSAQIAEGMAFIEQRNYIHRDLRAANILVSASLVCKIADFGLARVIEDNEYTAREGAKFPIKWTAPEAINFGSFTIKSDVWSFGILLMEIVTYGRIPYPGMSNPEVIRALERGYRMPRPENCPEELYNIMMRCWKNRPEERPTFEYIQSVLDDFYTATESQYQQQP

SMILES	IC50 [nM]
C[C@H]1CN([C@H]2CC[C@H](n3cc(-c4ccc(Oc5ccccc5)cc4F)c4c(N)ncnc43)CC2)CCN1 [Example 126, 5-(2-fluoro-4-phenoxyphenyl)-7-((trans)-4-((S)-3-methylpiperazin-1-yl)cyclohexyl)-7H-pyrrolo[2,3-d]pyrimidin-4-amine]	< 50
C[C@H]1CN([C@H]2CC[C@@H](n3nc(-c4ccc(Oc5ccccc5)cc4F)c4c(N)ncnc43)CC2)CCN1 [Example 128, 3-(2-fluoro-4-phenoxyphenyl)-1-((cis)-4-((S)-3-methylpiperazin-1-yl)cyclohexyl)-1H-pyrazolo[3,4-d]pyrimidin-4-amine]	50 to 250
COc1cc(-c2cn([C@H]3CO[C@@H](C4CCN(C)CC4)OC3)c3ncnc(N)c23)ccc1Oc1ccccc1 [Example 133, 5-(3-methoxy-4-phenoxyphenyl)-7-((cis)-2-(1-methylpiperidin-4-yl)-1,3-dioxan-5-yl)-7H-pyrrolo[2,3-d]pyrimidin-4-amine]	< 50
COc1cc(-c2cn([C@H]3CC[C@H](N4CCN[C@@H](C)C4)CC3)c3ncnc(N)c23)ccc1Oc1ccccc1 [Example 134, 5-(3-Methoxy-4-phenoxyphenyl)-7-((trans)-4-((S)-3-methylpiperazin-1-yl)cyclohexyl)-7H-pyrrolo[2,3-d]pyrimidin-4-amine]	< 50
CN1CCN(C2CCC(n3nc(-c4ccc(Oc5ccccc5)cc4F)c4c(N)ncnc43)C2)CC1 (centres unmarked) [Example 135]	50 to 250
Nc1ncnc2c1c(-c1ccc(Oc3ccccc3)cc1)nn2[C@H]1CC[C@H](n2cc(CO)cn2)CC1 [Example 138, (1-((trans)-4-(4-Amino-3-(4-phenoxyphenyl)-1H-pyrazolo[3,4-d]pyrimidin-1-yl)cyclohexyl)-1H-pyrazol-4-yl)methanol]	< 50
Nc1ncnc2c1c(-c1ccc(Oc3ccccc3)cc1)cn2C1CCC2(CC1)CCN(CCCCO)CC2 [Example 140, 4-(9-(4-amino-5-(4-phenoxyphenyl)-7H-pyrrolo[2,3-d]pyrimidin-7-yl)-3-azaspiro[5.5]undecan-3-yl)butan-1-ol]	50 to 250
CN1CCOC(C2CCC(n3cc(-c4ccc(Oc5ccccc5)cc4)c4c(N)ncnc43)CC2)C1=O (centres unmarked) [Example 143, 2-(4-(4-Amino-5-(4-phenoxyphenyl)-7H-pyrrolo[2,3-d]pyrimidin-7-yl)cyclohexyl)-4-methylmorpholin-3-one]	50 to 250
CN1CCOC(C2CCC(n3cc(-c4ccc(Oc5ccccc5)cc4)c4c(N)ncnc43)CC2)C1 (centres unmarked) [Example 144, 7-(4-(4-Methylmorpholin-2-yl)cyclohexyl)-5-(4-phenoxyphenyl)-7H-pyrrolo[2,3-d]pyrimidin-4-amine]	< 50
CN1CCC(N2CCC(n3nc(-c4ccc(Oc5ccccc5)cc4F)c4c(N)ncnc43)CC2)CC1 [Example 147, 3-(2-fluoro-4-phenoxyphenyl)-1-(1′-methyl-[1,4′-bipiperidin]-4-yl)-1H-pyrazolo[3,4-d]pyrimidin-4-amine]	< 50
CN1CCC(N2CCC(n3nc(-c4ccc(NC(=O)Nc5cc(C(C)(C)C)on5)cc4)c4c(N)ncnc43)CC2)CC1 [Example 148, 1-(4-(4-Amino-1-(1′-methyl-[1,4′-bipiperidin]-4-yl)-1H-pyrazolo[3,4-d]pyrimidin-3-yl)phenyl)-3-(5-(tert-butyl)isoxazol-3-yl)urea]	50 to 250
COc1cc(-c2cn(C3CCN(C4CCN(C)CC4)CC3)c3ncnc(N)c23)ccc1Oc1ccccc1 [Example 149, 5-(3-methoxy-4-phenoxyphenyl)-7-(1′-methyl-[1,4′-bipiperidin]-4-yl)-7H-pyrrolo[2,3-d]pyrimidin-4-amine]	< 50
CN1CCC(N2CCC(n3cc(-c4ccc(NC(=O)Nc5cc(C(C)(C)C)on5)cc4)c4c(N)ncnc43)CC2)CC1 [Example 151, 1-(4-(4-amino-7-(1′-methyl-[1,4′-bipiperidin]-4-yl)-7H-pyrrolo[2,3-d]pyrimidin-5-yl)phenyl)-3-(5-(tert-butyl)isoxazole-3-yl)urea]	< 50
CC(C)N1CCC(N2CCC(n3nc(-c4ccc(Oc5ccccc5)cc4F)c4c(N)ncnc43)CC2)CC1 [Example 153, 3-(2-fluoro-4-phenoxyphenyl)-1-(1′-isopropyl-[1,4′-bipiperidin]-4-yl)-1H-pyrazolo[3,4-d]pyrimidin-4-amine]	< 50
C[C@H]1CC(N2CCC(n3cc(-c4ccc(Oc5ccccc5)cc4)c4c(N)ncnc43)CC2)CCN1 (stereo partly drawn) [Example 154, 7-((2′S)-2′-methyl-[1,4′-bipiperidin]-4-yl)-5-(4-phenoxyphenyl)-7H-pyrrolo[2,3-d]pyrimidin-4-amine]	< 50
COC(=O)C1CC(N2CCC(n3cc(-c4ccc(Oc5ccccc5)cc4)c4c(N)ncnc43)CC2)CCN1 (centres unmarked) [Example 158, methyl 4-(4-amino-5-(4-phenoxyphenyl)-7H-pyrrolo[2,3-d]pyrimidin-7-yl)-[1,4′-bipiperidine]-2′-carboxylate]	50 to 250
Nc1ncnc2c1c(-c1ccc(Oc3ccccc3)cc1)cn2C1CCN(C2CCCC(N)C2)CC1 (centres unmarked) [Example 159, 7-(1-(3-aminocyclohexyl)piperidin-4-yl)-5-(4-phenoxyphenyl)-7H-pyrrolo[2,3-d]pyrimidin-4-amine]	< 50
CN1CCCC(N2CCC(n3cc(-c4ccc(Oc5ccccc5)cc4)c4c(N)ncnc43)CC2)C1 (centres unmarked) [Example 160, 7-(1′-methyl-[1,3′-bipiperidin]-4-yl)-5-(4-phenoxyphenyl)-7H-pyrrolo [2,3-d] pyrimidin-4-amine]	50 to 250

Next, values leading:

IC50 [nM]	SMILES
< 50	[2H]c1c([2H])c([2H])c(Oc2ccc(-c3cn([C@H]4CC[C@H](N5CCN[C@@H](C)C5)CC4)c4ncnc(N)c34)cc2)c([2H])c1[2H] [Example 125, 7-((trans)-4-((S)-3-methylpiperazin-1-yl)cyclohexyl)-5-(4-pentadeuteriophenoxyphenyl)-7H-pyrrolo[2,3-d]pyrimidin-4-amine]
< 50	C[C@H]1CN([C@H]2CC[C@H](n3cc(-c4ccc(NC(=O)Nc5cc(C(C)(C)C)on5)cc4)c4c(N)ncnc43)CC2)CCN1 [Example 129, 1-(4-(4-amino-7-((trans)-4-((S)-3-methylpiperazin-1-yl)cyclohexyl)-7H-pyrrolo[2,3-d]pyrimidin-5-yl)phenyl)-3-(5-(tert-butyl)isoxazol-3-yl)urea]
50 to 250	C[C@H]1CN([C@H]2CC[C@@H](n3cc(-c4ccc(NC(=O)Nc5cc(C(C)(C)C)on5)cc4)c4c(N)ncnc43)CC2)CCN1 [Example 130, 1-(4-(4-amino-7-((cis)-4-((S)-3-methylpiperazin-1-yl)cyclohexyl)-7H-pyrrolo[2,3-d]pyrimidin-5-yl)phenyl)-3-(5-(tert-butyl)isoxazol-3-yl)urea]
50 to 250	COc1cc(-c2cn([C@H]3CO[C@H](C4CCN(C)CC4)OC3)c3ncnc(N)c23)ccc1Oc1ccccc1 [Example 131, 5-(3-methoxy-4-phenoxyphenyl)-7-((trans)-2-(1-methylpiperidin-4-yl)-1,3-dioxan-5-yl)-7H-pyrrolo[2,3-d]pyrimidin-4-amine]
50 to 250	Nc1ncnc2c1c(-c1ccc(NC(=O)CCc3ccccc3)cc1)cn2C1CCC(C2OCC(N)CO2)CC1 (centres unmarked) [Example 139, N-(4-(4-Amino-7-(4-(5-amino-1,3-dioxan-2-yl)cyclohexyl)-7H-pyrrolo[2,3-d]pyrimidin-5-yl)phenyl)-3-phenylpropanamide]
< 50	Nc1ncnc2c1c(-c1ccc(Oc3ccccc3)cc1)cn2C1CCC2(CCNCC2)CC1 [Example 141, 5-(4-phenoxyphenyl)-7-(3-azaspiro[5.5]undecan-9-yl)-7H-pyrrolo[2,3-d]pyrimidin-4-amine]
< 50	CN1CCC2(CCC(n3cc(-c4ccc(Oc5ccccc5)cc4)c4c(N)ncnc43)CC2)CC1 [Example 142, 7-(3-methyl-3-azaspiro[5.5]undecan-9-yl)-5-(4-phenoxyphenyl)-7H-pyrrolo[2,3-d]pyrimidin-4-amine]
< 50	CN1CCC([C@H]2OC[C@H](n3cc(-c4ccc(Oc5ccccc5)cc4)c4c(N)ncnc43)CO2)CC1 [Example 145, 7-((2r,5r)-2-(1-Methylpiperidin-4-yl)-1,3-dioxan-5-yl)-5-(4-phenoxyphenyl)-7H-pyrrolo[2,3-d]pyrimidin-4-amine]
< 50	CN1CCC([C@H]2OC[C@@H](n3cc(-c4ccc(Oc5ccccc5)cc4)c4c(N)ncnc43)CO2)CC1 [Example 146, 7-((2s,5s)-2-(1-Methylpiperidin-4-yl)-1,3-dioxan-5-yl)-5-(4-phenoxyphenyl)-7H-pyrrolo[2,3-d]pyrimidin-4-amine]
< 50	COc1cc(-c2cn(C3CCN(C4CCNCC4)CC3)c3ncnc(N)c23)ccc1Oc1ccccc1 [Example 150, 7-([1,4′-bipiperidin]-4-yl)-5-(3-methoxy-4-phenoxyphenyl)-7H-pyrrolo[2,3-d]pyrimidin-4-amine]
< 50	CCN1CCC(N2CCC(n3nc(-c4ccc(Oc5ccccc5)cc4F)c4c(N)ncnc43)CC2)CC1 [Example 152, 1-(1′-ethyl-[1,4′-bipiperidin]-4-yl)-3-(2-fluoro-4-phenoxyphenyl)-1H-pyrazolo[3,4-d]pyrimidin-4-amine]
< 50	C[C@H]1CC(N2CCC(n3nc(-c4ccc(Oc5ccccc5)cc4F)c4c(N)ncnc43)CC2)CCN1 (stereo partly drawn) [Example 155, 3-(2-fluoro-4-phenoxyphenyl)-1-((2′S)-2′-methyl-[1,4′-bipiperidin]-4-yl)-1H-pyrazolo[3,4-d]pyrimidin-4-amine]
< 50	C[C@H]1CC(N2CCC(n3cc(-c4ccc(NC(=O)Nc5cc(C(C)(C)C)on5)cc4)c4c(N)ncnc43)CC2)CCN1 (stereo partly drawn) [Example 156, 1-(4-(4-amino-7-((2′S)-2′-methyl-[1,4′-bipiperidin]-4-yl)-7H-pyrrolo[2,3-d]pyrimidin-5-yl)phenyl)-3-(5-(tert-butyl)isoxazol-3-yl)urea]
< 50	Nc1ncnc2c1c(-c1ccc(Oc3ccccc3)cc1)cn2C1CCN(C2CCNC(CO)C2)CC1 (centres unmarked) [Example 157, (4-(4-amino-5-(4-phenoxyphenyl)-7H-pyrrolo[2,3-d]pyrimidin-7-yl)-[1,4′-bipiperidin]-2′-yl)methanol]
